{"source": "patent US11833211B2", "about": "“Methods of suppression and treatment of disease comprising administering bicycle peptide ligands specific for EphA2” (BicycleTx Limited, priority 2017, dated 2023)", "key": {"[1]": {"biological_target": "T1, mouse EphA2 (Mus musculus, UniProt Q03145)", "T1 construct": "EphA2 (Ecto)", "T1 sequence (Q03145 26-538 limits assumed)": "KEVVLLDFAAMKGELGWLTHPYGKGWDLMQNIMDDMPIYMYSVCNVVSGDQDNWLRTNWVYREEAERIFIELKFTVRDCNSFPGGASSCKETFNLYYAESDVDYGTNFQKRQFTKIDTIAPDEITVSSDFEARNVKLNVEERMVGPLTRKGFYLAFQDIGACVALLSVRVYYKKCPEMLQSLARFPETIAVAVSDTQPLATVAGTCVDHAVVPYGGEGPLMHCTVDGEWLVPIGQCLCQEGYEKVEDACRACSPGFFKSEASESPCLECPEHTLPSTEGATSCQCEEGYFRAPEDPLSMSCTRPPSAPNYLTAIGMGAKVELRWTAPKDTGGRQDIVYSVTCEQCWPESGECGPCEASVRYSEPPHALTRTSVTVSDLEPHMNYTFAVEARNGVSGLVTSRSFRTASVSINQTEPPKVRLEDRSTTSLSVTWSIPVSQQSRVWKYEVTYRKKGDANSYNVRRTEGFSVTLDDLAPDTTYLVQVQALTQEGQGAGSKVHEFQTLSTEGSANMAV", "format": "binding"}, "[2]": {"biological_target": "T2, rat EphA2 (Rattus norvegicus, UniProt D3ZBN3)", "T2 construct": "polyHis (C); made in house", "T2 sequence (D3ZBN3 27-205)": "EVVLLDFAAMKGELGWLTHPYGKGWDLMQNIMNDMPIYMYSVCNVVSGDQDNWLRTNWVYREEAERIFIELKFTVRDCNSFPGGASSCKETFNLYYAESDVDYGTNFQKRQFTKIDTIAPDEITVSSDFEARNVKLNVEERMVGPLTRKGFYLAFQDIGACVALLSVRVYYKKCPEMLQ", "assay": "Fluorescence polarisation competition binding, alternative protocol (Study 2)"}, "[3]": {"tested_on": "PC-3 xenograft", "assay": "Study 8: in vivo efficacy in PC-3 xenograft", "design": "species or system Mus Musculus", "conditions": "15 mg/kg"}, "[4]": {"biological_target": "T3, human EphA2 (Homo sapiens, UniProt P29317)", "T3 construct": "EphA2 (Ecto); polyHis (C); purchased R&D systems (or In-house)", "T3 sequence (P29317 24-537 limits assumed)": "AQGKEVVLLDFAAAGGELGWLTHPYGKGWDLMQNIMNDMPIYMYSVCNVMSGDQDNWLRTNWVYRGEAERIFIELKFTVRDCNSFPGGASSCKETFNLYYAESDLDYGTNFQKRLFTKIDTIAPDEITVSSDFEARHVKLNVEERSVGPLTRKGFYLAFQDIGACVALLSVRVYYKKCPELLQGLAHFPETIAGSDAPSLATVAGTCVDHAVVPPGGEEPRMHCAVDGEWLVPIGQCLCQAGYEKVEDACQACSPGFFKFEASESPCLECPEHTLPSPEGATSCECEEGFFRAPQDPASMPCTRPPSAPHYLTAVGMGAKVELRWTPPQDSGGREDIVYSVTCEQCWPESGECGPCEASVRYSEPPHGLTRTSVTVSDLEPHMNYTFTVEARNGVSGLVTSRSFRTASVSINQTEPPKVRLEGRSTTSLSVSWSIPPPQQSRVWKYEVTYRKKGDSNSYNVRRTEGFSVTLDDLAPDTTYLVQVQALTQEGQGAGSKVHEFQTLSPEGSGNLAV", "assay": "Fluorescence polarisation competition binding assay (Study 1)"}}}
{"molecule": "(β-Ala)-Sar10-A(HArg)D-Ci(HyP)LVNPLCiiLHP(D-Asp)W(HArg)Ciii [BCY6099]", "values": [{"measurement": "affinity to mouse EphA2 (in words)", "setting": "[1]", "value": "high affinity"}, {"measurement": "affinity to rat EphA2 (in words)", "setting": "[2]", "value": "high affinity"}]}
{"molecule": "CC(=O)O[C@@]12CO[C@@H]1C[C@H](O)[C@@]1(C)C(=O)[C@H](O)C3=C(C)[C@@H](OC(=O)[C@H](O)[C@@H](NC(=O)OC(C)(C)C)c4ccccc4)C[C@@](O)([C@@H](OC(=O)c4ccccc4)[C@H]21)C3(C)C", "note": "[Docetaxel]", "values": [{"measurement": "body weight", "setting": "[3]; after the first dosing", "value": "severe animal body weight loss"}, {"measurement": "anti-tumor activity (in words)", "setting": "[3]; qw", "value": "significant anti-tumor activity"}, {"measurement": "tumor relapse after ceasing the treatment", "setting": "[3]; qw", "value": "obvious tumor relapse"}]}
{"molecule": "COc1cc2cc(c1Cl)N(C)C(=O)C[C@@H](OC(=O)[C@@H](C)N(C)C(=O)CCSSC(C)CCC(=O)NCCC(=O)N(C)CC(=O)N(C)CC(=O)N(C)CC(=O)N(C)CC(=O)N(C)CC(=O)N(C)CC(=O)N(C)CC(=O)N(C)CC(=O)N(C)CC(=O)N(C)CC(=O)N[C@@H](C)C(=O)N[C@@H](CCCCNC(=N)N)C(=O)N[C@@H](CC(=O)O)C(=O)N[C@H]1CSCCC(=O)N3CN4CN(C3)C(=O)CCSC[C@H](NC(=O)[C@H](CC(C)C)NC(=O)[C@@H]3CCCN3C(=O)[C@H](CC(N)=O)NC(=O)[C@H](C(C)C)NC(=O)[C@H](CC(C)C)NC(=O)[C@@H]3C[C@@H](O)CN3C1=O)C(=O)N[C@@H](CC(C)C)C(=O)N[C@@H](Cc1c[nH]cn1)C(=O)N1CCC[C@H]1C(=O)N[C@H](CC(=O)O)C(=O)N[C@@H](Cc1c[nH]c3ccccc13)C(=O)N[C@@H](CCCCNC(=N)N)C(=O)N[C@H](C(N)=O)CSCCC4=O)[C@@]1(C)O[C@@H]1[C@@H](C)[C@H]1C[C@](O)(NC(=O)O1)C(OC)/C=C/C=C(\\C)C2", "note": "(stereo partly drawn) [BCY6028]", "values": [{"measurement": "competition binding in the EphA2 competition binding assay (in words)", "setting": "[4]", "value": "excellent competition binding"}]}
